According to patent publication US7192768B2, “Synchronization of the cytoplasmatic and the nuclear maturation of oocytes in vitro” (Novo Nordisk A/S, priority 2001, dated 2007):
Marks after values point to notes of the source that are not given here.

Key:
[1] = tested on: cumulus-enclosed oocytes (CEO); assay: FSH induced resumption of meiosis and cumulus expansion of hypoxanthine arrested mouse oocytes cultured in vitro (22-hydroxycholesterol); type: cell-based; parameters: Cumulus expansion: key to the marks not given beside the values
Method: Immature female mice (B6D2-F1 strain C57B1/2J) were kept under controlled light and temperature conditions with free access to food and water. Ovarian stimulation was performed when the mice weighed 10–16 grams and consisted of an intra-peritoneal injection of Gonadoplex (Leo, Copenhagen, Denmark) containing 7.5 U/mouse. The animals were killed by cervical dislocation 44–48 h later. The media used for the culture of oocytes consisted of α-Minimum Essential Medium (α-MEM), with Earles Balanced Salt Solution (EBSS), containing 4 mM hypoxanthine, 3 mg/ml bovine serum albumin, 0.23 mM pyruvate, 2 mM glutamine (all Sigma, U.S.A) and 100 IU/ml penicillin, 100 ug/ml Streptomycin. This medium was termed “HX-medium”. A media similar to the above but without HX are termed “maturation-medium”. Oocytes were isolated in HX-medium under a stereo microscope by manual rupture of follicles using a pair of 5.5-gauge needles. Spherical oocytes with intact cumulus cells connection and displaying germinal vesicle were categorized as cumulus-enclosed oocytes (CEO). Oocytes were rinsed 3 times in fresh HX-medium. Prior to each experimental set-up, all oocytes from 10–15 mice were pooled. Only oocytes with a germinal vesicle present were used and distributed in separate wells of a 4-well dish (Nuncoln, Denmark) containing 1 ml of HX-medium. Each well contained 20–30 oocytes and was cultured at 37° C. in 100% humidity in air with 5% CO2. Each experiment was repeated at least 4 times. At the end of the culture period (i.e 24 h), oocytes with GV or GVBD, or polar body (PB) were counted using an inverted microscope with differential interference contrast equipment (Leica, German). […]
Graduation of cumulus expansion: 0: No expansion, compact cumulus layer surrounding the oocyte; +: A slight cumulus expansion, the most peripheral cumulus cell looks a little fluffy; ++: good expansion of cumulus cell without a spherical cloud like expansion; +++: full cumulus expansion with a fluffy cloud like expansion with extended distance between the somatic cells.

cultured mouse oocytes = conditions: WO 98/28323; cited from earlier work
[2] = tested on: cumulus enclosed mouse oocytes; assay: FSH induced resumption of meiosis of mouse oocytes cultured in vitro (dbc-AMP control medium); type: cell-based; conditions: for % GVBD / % PB (PB/GVBD): 22-24 h
Method: Immature female mice (B6D2-F1 strain C57B1/2J) were kept under controlled light and temperature conditions with free access to food and water. Ovarian stimulation was performed when the mice weighed 10–16 grams and consisted of an intra-peritoneal injection of Gonadoplex (Leo, Copenhagen, Denmark) containing 7.5 U/mouse. The animals were killed by cervical dislocation 44–48 h later. The media used for the culture of oocytes consisted of α-Minimum Essential Medium (α-MEM), with Earles Balanced Salt Solution (EBSS), 200 μM dibuturyl-cyclic-adenosine-mono-phosphate (dbc-AMP), 3 mg/ml Bovine Serum Albumin, 0,23 mM pyruvate, 2 mM glutamine, 100 IU/ml penicillin and 100 mg/ml streptomycin (i.e. control medium). The ovaries were recovered and oocytes isolated from the ovaries by puncturing individual follicles using a 25 gauge needle. The oocytes were washed 3 times in control medium before the start of each experiment. Cumulus enclosed oocytes were cultured separately in 4-well dishes (Nuncleon, Roskilde, Denmark), 0.4 ml medium in each well containing control medium or medium supplemented with ketoconazole in a 100% humidified atmosphere of 5% CO2 with 95% air at 37° C. The culture period was 22–24 h. By the end of the culture period, germinal vesicle breakdown (GVBD) was scored by examining the oocyte in an inverted microscope. The percentage of oocytes with GVBD per total number of oocytes (% GVBD) was calculated.

[3] = tested on: cumulus-enclosed oocytes (CEO); assay: FSH induced resumption of meiosis of hypoxanthine arrested mouse oocytes cultured in vitro (ketoconazole); type: cell-based; conditions: HX-medium; for % GVBD / % PB (PB/GVBD): 24 h
Method: Oocytes were obtained from immature mice (Kunming white mouse) weighing 14–16 g that were kept under controlled light and temperature conditions with free access to water. The mice received an intra peritoneal injection of 0.1 ml pregnant mare's serum gonadotrophin (PMSG, Sigma, New York, U.S.A) containing 10 IU PMSG. Forty-six hours later, the animals were killed by cervical dislocation. The ovaries were dissected out and placed in M199 culture medium (GIBCO, U.S.A) containing 4 mM hypoxanthine, 3 mg/ml bovine serum albumin, 0.23 mM pyruvate, 2 mM glutamine (all Sigma, U.S.A) and 100 IU/ml penicillin, 100 ug/ml Streptomycin. This medium was termed “HX-medium”. A media similar to the above but without HX are termed “maturation-medium”. Oocytes were isolated in HX-medium under a stereo microscope by manual rupture of follicles using a pair of 5.5-gauge needles. Spherical oocytes with intact cumulus cells connection and displaying germinal vesicle were categorized as cumulus-enclosed oocytes (CEO). Oocytes were rinsed 3 times in fresh HX-medium. Prior to each experimental set-up, all oocytes from 10–15 mice were pooled. Only oocytes with a germinal vesicle present were used and distributed in separate wells of a 4-well dish (Nuncoln, Denmark) containing 1 ml of HX-medium. Each well contained 20–30 oocytes and was cultured at 37° C. in 1000% humidity in air with 5% CO2. Each experiment was repeated at least 4 times. At the end of the culture period (i.e 24 h), oocytes with GV or GVBD, or polar body (PB) were counted using an inverted microscope with differential interference contrast equipment (Leica, German). The percentage of oocytes with GVBD per total number of oocytes (% GVBD) and the percentage of oocytes with PB formation per total number of oocytes (% PB) were calculated.

cumulus enclosed oocytes = conditions: AY added to cumulus enclosed oocytes; cited from earlier work
human oocytes = conditions: EGF 2 ng/ml, 30 h culture; cited from earlier work
[4] = 22-OH-cholesterole 1 μg/ml + FSH 75 IU/L, with fetal calf serum
[5] = 22-OH-cholesterole 1 μg/ml + FSH 75 IU/L, without fetal calf serum
[6] = 22-OH-cholesterole 5 μg/ml + FSH 75 IU/L, without fetal calf serum
[7] = 22-OH-cholesterole 10 μg/ml + FSH 75 IU/L, with fetal calf serum
[8] = 22-OH-cholesterole 10 μg/ml + FSH 75 IU/L, without fetal calf serum
[9] = 22-OH-cholesterole 25 μg/ml + FSH 75 IU/L, with fetal calf serum
[10] = 22-OH-cholesterole 25 μg/ml + FSH 75 IU/L, without fetal calf serum
[11] = ketoconazole 5 μM in medium with FSH 75 IU/L
[12] = ketoconazole 10 μM in medium with FSH 75 IU/L
[13] = ketoconazole 20 μM in medium with FSH 75 IU/L
[14] = ketoconazole 0.1 μM + FSH 50 IU/L
[15] = ketoconazole 1 μM + FSH 50 IU/L
[16] = ketoconazole 10 μM + FSH 50 IU/L
[17] = ketoconazole 100 μM + FSH 50 IU/L
[18] = ketoconazole 1000 μM + FSH 50 IU/L

CC(C)CCC(O)[C@@H](C)[C@H]1CC[C@H]2[C@@H]3CC=C4C[C@@H](O)CC[C@]4(C)[C@H]3CC[C@]12C (some centres unmarked) [22-OH-cholesterole, 22-hydroxycholesterol]
% GVBD [1, 4]: 41%
% PB (PB/GVBD) [1, 4]: 29%
Cumulus expansion [1, 4]: +++
% GVBD [1, 5]: 62%
% PB (PB/GVBD) [1, 5]: 25* %
% GVBD ([1]; 22-OH-cholesterole 3 μg/ml alone (no FSH), without fetal calf serum, HX-medium, 24 h): 26%
% GVBD [1, 6]: 72%
% PB (PB/GVBD) [1, 6]: 26* %
% GVBD [1, 7]: 39* %
% PB (PB/GVBD) [1, 7]: 14* %
% GVBD [1, 8]: 31* %
% PB (PB/GVBD) [1, 8]: 11* %
% GVBD [1, 9]: 19* %
% PB (PB/GVBD) [1, 9]: 28* %
% GVBD [1, 10]: 17* %
% PB (PB/GVBD) [1, 10]: 0* %
cumulus expansion with 22-hydroxycholesterol and FSH compared with FSH alone (in words) ([1]; tables 3 and 4, FSH 75 IU/L): occurs to similar degree
effect on FSH induced resumption of meiosis (in words) ([1]; tables 3 and 4, FSH 75 IU/L): prevents oocytes from resuming meiosis in the presence of FSH
effect on FF-MAS induced resumption of meiosis (in words) (cultured mouse oocytes): can prevent a FF-MAS induced resumption of meiosis

CC(=O)N1CCN(c2ccc(OCC3COC(Cn4ccnc4)(c4ccc(Cl)cc4Cl)O3)cc2)CC1 (centres unmarked) [Ketoconazole, ketoconazole]
% GVBD [2, 11]: 7%
% PB (PB/GVBD) [2, 11]: 57%
% GVBD [2, 12]: 7%
% PB (PB/GVBD) [2, 12]: 8%
% GVBD [2, 13]: 3%
% PB (PB/GVBD) [2, 13]: 0%
effect on FSH induced resumption of meiosis (in words) ([2]; ketoconazole 5-20 μM with FSH 75 IU/L): able to prevent oocytes resuming meiosis
% GVBD [3, 14]: 58%
% PB (PB/GVBD) [3, 14]: 33%
% GVBD [3, 15]: 48* %
% PB (PB/GVBD) [3, 15]: 30%
% GVBD [3, 16]: 35* %
% PB (PB/GVBD) [3, 16]: 25%
% GVBD [3, 17]: 20* %
% PB (PB/GVBD) [3, 17]: 19* %
% GVBD [3, 18]: 21* %
% PB (PB/GVBD) [3, 18]: 17* %
effect on FSH induced resumption of meiosis (in words) ([3]; ketoconazole with FSH 50 IU/L): prevents oocytes from resuming meiosis
effect on PB formation (in words) ([3]; ketoconazole with FSH 50 IU/L): dose-dependant inhibition of PB formation

AY-9944-A-7
accumulation of FF-MAS (in words) (cumulus enclosed oocytes): causes accumulation of FF-MAS
resumption of meiosis (in words) (cumulus enclosed oocytes): dose-dependant induction of resumption of meiosis

EGF: epidermal growth factor (NSDSECPLSHDGYCLHDGVCMYIEALDKYACNCVVGYIGERCQYRDLKWWELR; UniProt P01133 971-1023, looked up)
number of germinal vesicle oocytes reaching metaphase II (in words) (human oocytes): enhanced
